This is an account of results in ChEMBL document CHEMBL5357027, “Annonaceous Acetogenins Synergistically Inhibit Hepatocellular Carcinoma with Sorafenib” (J Nat Prod, 2024).

As usually defined, the IC50 is the concentration that gives 50% inhibition.

Each structure is given as a SMILES string. Activity calls are given as the source filed them. The calls are words filed in the database; no cut-off is given here.

In experiment [1] the test system is HCCLM3. In words: Induction of apoptosis in human HCCLM3 cells assessed as late apoptotic cells at 4 uM incubated for 48 hrs by Annexin V/FITC-PI staining based flow cytometry (reference value: 0.07%). The class given is functional. For orientation: In flow cytometry, cells or beads pass a laser one at a time.
Experiment [2] has as its system MHCC97H. In words: Inhibition of mitochondrial function in human MHCC97H cells assessed as reduction in ATP production at 16 uM incubated for 48 hrs relative to control. It counts as functional. Details: scale not given: the % may be the effect or the level left.
Experiment [3] concerns Huh-7. In words: Inhibition of mitochondrial function in human Huh-7 cells assessed as reduction in ATP production at 16 uM incubated for 48 hrs relative to control. The class given is functional. Further details: scale not given: the % may be the effect or the level left.
The subject of experiment [4] is HCCLM3. In words: Induction of apoptosis in human HCCLM3 cells assessed as viable cells at 4 uM incubated for 48 hrs by Annexin V/FITC-PI staining based flow cytometry (reference value: 96.55%). It counts as functional. The note with it: read-out: Activity.
For experiment [5], the system named is HCCLM3. In words: Induction of apoptosis in human HCCLM3 cells assessed as early apoptotic cells at 4 uM incubated for 48 hrs by Annexin V/FITC-PI staining based flow cytometry (reference value: 0.05%). The class given is functional.
In experiment [6] the test system is HepG2. In words: Inhibition of mitochondrial function in human HepG2 cells assessed as reduction in ATP production at 16 uM incubated for 48 hrs relative to control. The class given is functional. Details: scale not given: the % may be the effect or the level left.
Experiment [7] has as its system HCCLM3. In words: Induction of apoptosis in human HCCLM3 cells assessed as necrotic cells at 4 uM incubated for 48 hrs by Annexin V/FITC-PI staining based flow cytometry (reference value: 3.33%). The class given is functional.
In experiment [8] the test system is HCCLM3. In words: Inhibition of mitochondrial function in human HCCLM3 cells assessed as reduction in ATP production at 16 uM incubated for 48 hrs relative to control. It counts as functional. Details: scale not given: the % may be the effect or the level left.
The subject of experiment [9] is HepG2. In words: Synergistic cytotoxicity against human HepG2 cells assessed as cell growth inhibition by measuring synergy score at 1 to 16 uM incubated for 48 hrs in presence of sorafenib at 1 to 16 uM by MTT assay. The class given is functional. The note with it: dose 1-16 µM.
For experiment [10], the system named is MHCC97H. In words: Cytotoxicity against human MHCC97H cells assessed as cell growth inhibition incubated for 48 hrs by MTT assay. The class given is functional, cell-based.
For experiment [11], the system named is HCCLM3. In words: Cytotoxicity against human HCCLM3 cells assessed as cell growth inhibition incubated for 48 hrs by MTT assay. The class given is functional, cell-based. The note with it: HCCLM3, 48 h. Background: Tetrazolium dyes change colour on reduction, which living cells bring about.
Experiment [12] has as its system HCCLM3. In words: Inhibition of mitochondrial respiratory chain complex I in human HCCLM3 incubated for 24 hrs. The class given is cell-based.
Experiment [13] relates to HepG2. In words: Cytotoxicity against human HepG2 cells assessed as cell growth inhibition incubated for 48 hrs by MTT assay. It counts as functional, cell-based. The note with it: HepG2, 48 h.
For experiment [14], the system named is MHCC97H. In words: Synergistic cytotoxicity against human MHCC97H cells assessed as cell growth inhibition by measuring synergy score at 1 to 16 uM incubated for 48 hrs in presence of sorafenib at 1 to 16 uM by MTT assay. The class given is functional. The note with it: dose 1-16 µM.
For experiment [15], the system named is HCCLM3. In words: Synergistic cytotoxicity against human HCCLM3 cells assessed as cell growth inhibition by measuring synergy score at 1 to 16 uM incubated for 48 hrs in presence of sorafenib at 1 to 16 uM by MTT assay. It counts as functional. The note with it: dose 1-16 µM.
In experiment [16] the test system is Huh-7. In words: Synergistic cytotoxicity against human Huh-7 cells assessed as cell growth inhibition by measuring synergy score at 1 to 16 uM incubated for 48 hrs in presence of sorafenib at 1 to 16 uM by MTT assay. It counts as functional. Particulars: dose 1-16 µM.
Experiment [17] concerns Huh-7. In words: Cytotoxicity against human Huh-7 cells assessed as cell growth inhibition incubated for 48 hrs by MTT assay. It counts as functional, cell-based. Particulars: Huh-7, 48 h.
Experiment [18] deals with HCCLM3. In words: Induction of apoptosis in human HCCLM3 cells assessed as apoptotic ratio at 4 uM incubated for 48 hrs in presence of 4uM sorafenib by Annexin V/FITC-PI staining based flow cytometry relative to control. The class given is functional.
Experiment [19] has as its system Huh-7. In words: Synergistic inhibition of mitochondrial function in human Huh-7 cells assessed as reduction in intracellular ATP level at 8 uM incubated for 48 hrs in presence of 16 uM sorafenib. It counts as functional, cell-based.
Experiment [20] concerns Huh-7. In words: Inhibition of mitochondrial function in human Huh-7 cells assessed as reduction in ATP production at 8 uM incubated for 48 hrs. The class given is functional, cell-based.
Experiment [21] relates to HCCLM3. In words: Induction of apoptosis in human HCCLM3 cells assessed as early apoptotic cells at 4 uM incubated for 48 hrs in presence of 4uM sorafenib by Annexin V/FITC-PI staining based flow cytometry (reference value: 0.05%). It counts as functional.
Experiment [22] concerns HepG2. In words: Inhibition of mitochondrial function in human HepG2 cells assessed as reduction in ATP production at 8 uM incubated for 48 hrs. It counts as functional, cell-based.
Experiment [23] concerns HCCLM3. In words: Synergistic inhibition of mitochondrial function in human HCCLM3 cells assessed as reduction in intracellular ATP level at 8 uM incubated for 48 hrs in presence of 16 uM sorafenib. It counts as functional, cell-based.
Experiment [24] concerns HCCLM3. In words: Induction of apoptosis in human HCCLM3 cells assessed as late apoptotic cells at 4 uM incubated for 48 hrs in presence of 4uM sorafenib by Annexin V/FITC-PI staining based flow cytometry (reference value: 0.07%). The class given is functional.
Experiment [25] concerns MHCC97H. In words: Inhibition of mitochondrial function in human MHCC97H cells assessed as reduction in ATP production at 8 uM incubated for 48 hrs. The class given is functional, cell-based.
The subject of experiment [26] is HCCLM3. In words: Induction of apoptosis in human HCCLM3 cells assessed as necrotic cells at 4 uM incubated for 48 hrs in presence of 4uM sorafenib by Annexin V/FITC-PI staining based flow cytometry (reference value: 3.33%). It counts as functional.
The subject of experiment [27] is HepG2. In words: Synergistic inhibition of mitochondrial function in human HepG2 cells assessed as reduction in intracellular ATP level at 8 uM incubated for 48 hrs in presence of 16 uM sorafenib. The class given is functional, cell-based.
Experiment [28] has as its system HCCLM3. In words: Induction of apoptosis in human HCCLM3 cells assessed as viable cells at 4 uM incubated for 48 hrs in presence of 4uM sorafenib by Annexin V/FITC-PI staining based flow cytometry (reference value: 96.55%). The class given is functional. Particulars: read-out: Activity.
In experiment [29] the test system is MHCC97H. In words: Synergistic inhibition of mitochondrial function in human MHCC97H cells assessed as reduction in intracellular ATP level at 8 uM incubated for 48 hrs in presence of 16 uM sorafenib. It counts as functional, cell-based.
Experiment [30] has as its system HCCLM3. In words: Inhibition of mitochondrial function in human HCCLM3 cells assessed as reduction in ATP production at 8 uM incubated for 48 hrs. The class given is functional, cell-based.

As for `CNC(=O)c1cc(Oc2ccc(NC(=O)Nc3ccc(Cl)c(C(F)(F)F)c3)cc2)ccn1` [SORAFENIB], the Activity with HCCLM3 [1] was 0.67%; with MHCC97H [2] it was 54.4%; in the experiment on Huh-7 [3], 41.1%; with HCCLM3 [5] it was 3.59%; in the experiment with HepG2 [6] it was 69.5%; in the experiment on HCCLM3 [7], 1.57%. For the same compound, in the experiment with HCCLM3 [8], the Activity amounted to 77.4%. Further, the viability at 4 µM in the experiment with HCCLM3 [4] came out at 94.2%.
Regarding `CCCCCCCCCCCC[C@H](O)[C@@H]1CC[C@H]([C@H](O)CCCC[C@@H](O)CCCCC[C@@H](O)CC2=C[C@H](C)OC2=O)O1`, the Activity in the experiment on HepG2 [9], in the experiment with MHCC97H [14], in the experiment with HCCLM3 [15] and in the experiment on Huh-7 [16] was 2.3 each time. The IC50 in the experiment on MHCC97H [10], in the experiment with HCCLM3 [11], in the experiment on HepG2 [13] and in the experiment on Huh-7 [17] was 7.1 µM throughout. Further, the inhibition entry in the experiment on HCCLM3 [12] was “Active”.
Turning to `CCCCCCCCCCCC[C@H](O)[C@@H]1CC[C@H]([C@H](O)CCCCC(=O)CCCCC[C@@H](O)CC2=C[C@H](C)OC2=O)O1`, the Activity in the experiment with HepG2 [9], with MHCC97H [14], with HCCLM3 [15] and with Huh-7 [16] was 0.7 in each case. In addition, the IC50 in the experiment with MHCC97H [10], with HCCLM3 [11], in the experiment on HepG2 [13] and in the experiment with Huh-7 [17] was 15 µM each time. Further, the inhibition entry with HCCLM3 [12] is “Active”.
For `CCCCCCCCCC[C@H](O)[C@@H](O)C[C@H](O)[C@@H]1CC[C@@H](CCCCCCCCCC[C@@H](O)CC2=C[C@H](C)OC2=O)O1`, the Activity in the experiment on HCCLM3 [1] is 0.17%; in the experiment on HepG2 [9], 3.7; in the experiment with HCCLM3 [18] it was 11.6%; in the experiment with HCCLM3 [21] it was 8.66%; in the experiment on HCCLM3 [24], 6.45%; in the experiment on HCCLM3 [5] it was 1.27%. Further, the Activity was 1.36% with HCCLM3 [7]; 4.44% with HCCLM3 [26]; 17 with MHCC97H [14]; 13.9 in the experiment with HCCLM3 [15]; 7.1 in the experiment with Huh-7 [16]. Also, the inhibition entry in the experiment with Huh-7 [19], in the experiment with Huh-7 [20], with HepG2 [22], with HCCLM3 [12], in the experiment on MHCC97H [25] and with HepG2 [27] was “Active” in each case. Besides, the inhibition entry with MHCC97H [29] and with HCCLM3 [30] was “Active” in each case. Besides, the IC50 with MHCC97H [10], in the experiment with HCCLM3 [11], in the experiment with HepG2 [13] and with Huh-7 [17] was greater than 50 µM in each case. Also, in the experiment with HCCLM3 [23], the outcome was Active. The viability at 4 µM is 97.2% in the experiment on HCCLM3 [4] and 80.5% with HCCLM3 [28].
Regarding `CCCCCCCCCCCC[C@@H](O)[C@H]1CC[C@H]([C@H](O)CCCCC(=O)CCCCC[C@@H](O)CC2=C[C@H](C)OC2=O)O1` [ANNONACINONE], the Activity in the experiment with HepG2 [9], with MHCC97H [14], with HCCLM3 [15] and with Huh-7 [16] was 3.4 each time. Also, the IC50 in the experiment with MHCC97H [10], in the experiment on HCCLM3 [11], in the experiment with HepG2 [13] and in the experiment with Huh-7 [17] was 15.5 µM each time. In addition, the inhibition entry in the experiment on HCCLM3 [12] is “Active”.
Take `CCCCCCCCCC[C@@H](O)[C@H](O)C[C@@H](O)[C@H]1CC[C@H](CCCCCCCCCC[C@@H](O)CC2=C[C@H](C)OC2=O)O1`: the Activity with HepG2 [9], in the experiment on MHCC97H [14], with HCCLM3 [15] and in the experiment on Huh-7 [16] was 2.7 in each case. The IC50 in the experiment with MHCC97H [10], in the experiment on HCCLM3 [11], with HepG2 [13] and in the experiment with Huh-7 [17] was greater than 50 µM throughout. In addition, the inhibition entry in the experiment on HCCLM3 [12] was “Active”.
With `CCCCCCCCCCCC[C@@H](O)[C@H]1CC[C@H]([C@H](O)CCCC(O)CCCCCC[C@@H](O)CC2=C[C@H](C)OC2=O)O1` (some centres undefined), the Activity with HepG2 [9], with MHCC97H [14], in the experiment on HCCLM3 [15] and with Huh-7 [16] was 2 each time. Besides, the IC50 with MHCC97H [10], in the experiment with HCCLM3 [11], in the experiment with HepG2 [13] and in the experiment on Huh-7 [17] was 10 µM throughout. Moreover, the inhibition result with HCCLM3 [12] is “Active”.
